Measurements published in the CheMixHub viscosity set.
“And” between values parts separate entries of the source, which are not always exact repeats. Equal values may be shown once. ± gives the uncertainty stated by the source.

Row | Structure (SMILES) | viscosity (303.15 K, 101.33 kPa) | viscosity (308.15 K, 101.33 kPa) | viscosity (298.15 K, 101 kPa) | viscosity (318.15 K, 101.33 kPa) [mPa·s] | viscosity (298.15 K, 100 kPa) | viscosity (303.15 K, 100 kPa) | viscosity (308.15 K, 100 kPa) | viscosity (313.15 K, 100 kPa) | viscosity (303.15 K, 101 kPa) | viscosity (308.15 K, 101 kPa) | viscosity (313.15 K, 101 kPa) | also measured
1 | CCOC(=O)CCl | 1.007 ± 0.02 mPa·s and 1.007 ± 0.025 mPa·s | 0.933 ± 0.017 mPa·s and 0.933 ± 0.022 mPa·s | – | – | – | – | – | – | – | – | – | viscosity (303.15 K, 101.3 kPa): 1.013 ± 0.013 mPa·s and 1.013 ± 0.009 mPa·s; viscosity (308.15 K, 101.3 kPa): 0.93 ± 0.012 mPa·s and 0.93 ± 0.009 mPa·s
2 | CCOCCOCCOCC | – | 1.048 ± 0.014 mPa·s | 1.268 ± 0.011 mPa·s | 0.881 ± 0.012 | – | – | – | – | – | – | – | viscosity (298.15 K, 101.33 kPa): 1.268 ± 0.016 mPa·s
3 | CCOS(=O)(=O)[O-].CC[N+](CC)=C(N(C)C)N(C)C | – | – | – | – | 139 ± 12 mPa·s and 139 ± 5 mPa·s | 104.9 ± 8.7 mPa·s and 104.9 ± 2.8 mPa·s | 80.44 ± 6.6 mPa·s and 80.44 ± 1.5 mPa·s | 63.24 ± 5.1 mPa·s and 63.24 ± 0.74 mPa·s | – | – | – | viscosity (293.15 K, 100 kPa): 190.9 ± 17 mPa·s and 190.9 ± 9 mPa·s; viscosity (318.15 K, 100 kPa): 50.27 ± 4 mPa·s and 50.27 ± 0.4 mPa·s; viscosity (323.15 K, 100 kPa): 40.55 ± 3.3 mPa·s and 40.55 ± 0.4 mPa·s
4 | CC[N+]1(C)CCCC1.COP(=O)([O-])OC | – | – | – | – | 169.4 ± 11 mPa·s | 123.5 ± 7.8 mPa·s | 93.55 ± 5.8 mPa·s | 72.82 ± 4.5 mPa·s | – | – | – | viscosity (293.15 K, 100 kPa): 227.7 ± 15 mPa·s; viscosity (318.15 K, 100 kPa): 56.38 ± 3.4 mPa·s; viscosity (323.15 K, 100 kPa): 45.1 ± 2.8 mPa·s
5 | CNC=O | 1.586 ± 0.015 mPa·s | 1.463 ± 0.013 mPa·s | 1.746 ± 0.028 mPa·s | 1.256 ± 0.012 | – | – | – | – | 1.585 ± 0.074 mPa·s and 1.597 ± 0.015 mPa·s and 1.58 ± 0.025 mPa·s | 1.462 ± 0.069 mPa·s and 1.473 ± 0.014 mPa·s and 1.434 ± 0.023 mPa·s | 1.352 ± 0.065 mPa·s and 1.361 ± 0.013 mPa·s and 1.306 ± 0.021 mPa·s | viscosity (298.15 K, 101.3 kPa): 1.695 ± 0.024 mPa·s; viscosity (303 K, 101 kPa): 1.475 ± 0.014 mPa·s; viscosity (313.15 K, 101.33 kPa): 1.352 ± 0.013 mPa·s; viscosity (318.15 K, 101 kPa): 1.255 ± 0.06 mPa·s and 1.263 ± 0.012 mPa·s and 1.191 ± 0.02 mPa·s; viscosity (323.15 K, 101 kPa): 1.175 ± 0.011 mPa·s; viscosity (323.15 K, 101.33 kPa): 1.167 ± 0.011 mPa·s
6 | COC(=O)c1ccccc1 | 1.523 ± 0.012 mPa·s and 1.656 ± 0.021 mPa·s and 1.638 ± 0.02 mPa·s | 1.521 ± 0.092 mPa·s and 1.491 ± 0.018 mPa·s | 1.823 ± 0.057 mPa·s and 1.825 ± 0.15 mPa·s | 1.253 ± 0.016 | – | – | 1.517 ± 0.062 mPa·s | 1.373 ± 0.056 mPa·s | 1.656 ± 0.14 mPa·s and 1.583 ± 0.018 mPa·s | 1.501 ± 0.037 mPa·s and 1.504 ± 0.047 mPa·s | 1.359 ± 0.014 mPa·s and 1.371 ± 0.034 mPa·s | viscosity (293.15 K, 101.33 kPa): 1.879 ± 0.015 mPa·s and 2.036 ± 0.12 mPa·s; viscosity (298.15 K, 101.3 kPa): 1.918 ± 0.024 mPa·s; viscosity (298.15 K, 101.33 kPa): 1.836 ± 0.11 mPa·s and 1.825 ± 0.023 mPa·s and 1.81 ± 0.022 mPa·s; viscosity (303.15 K, 101.3 kPa): 1.778 ± 0.022 mPa·s; viscosity (308.15 K, 101.3 kPa): 1.663 ± 0.021 mPa·s; viscosity (313.15 K, 101.3 kPa): 1.402 ± 0.018 mPa·s; viscosity (313.15 K, 101.33 kPa): 1.238 ± 0.01 mPa·s and 1.398 ± 0.085 mPa·s and 1.365 ± 0.017 mPa·s; viscosity (318.15 K, 101 kPa): 1.282 ± 0.032 mPa·s and 1.27 ± 0.04 mPa·s; viscosity (323.15 K, 101 kPa): 1.222 ± 0.03 mPa·s; viscosity (323.15 K, 101.33 kPa): 1.016 ± 0.009 mPa·s
7 | C[N+](C)(C)C.[OH-] | – | – | – | – | 2.77 ± 0.06 mPa·s | 2.71 ± 0.06 mPa·s | 2.62 ± 0.06 mPa·s | 2.56 ± 0.05 mPa·s | – | – | – | –
8 | C[N+](C)(C)CCO.O=C([O-])c1ccccn1 | – | – | – | – | – | – | – | – | – | – | – | viscosity (300 K, 100 kPa): 558.5 ± 54 mPa·s
9 | C[N+]1(CC2CO2)CCCC1=O.[Cl-] (centres undefined) | – | – | 1.537 ± 0.036 mPa·s and 1.489 ± 0.035 mPa·s | – | – | – | – | – | 1.415 ± 0.033 mPa·s and 1.373 ± 0.032 mPa·s | 1.309 ± 0.031 mPa·s and 1.27 ± 0.03 mPa·s | 1.215 ± 0.029 mPa·s and 1.18 ± 0.028 mPa·s | viscosity (293.15 K, 101 kPa): 1.677 ± 0.039 mPa·s and 1.623 ± 0.038 mPa·s
